Source: article PMC4754833, “Rilpivirine analogs potently inhibit drug-resistant HIV-1 mutants” (Retrovirology, 2016)

Columns and labels:
[1] = test system: HIV-1 RT mutant L100I/K103N; assay: single round infection assay, L100I/K103N; format: cell-based; settings: for IC50: Human immunodeficiency virus 1, L100I/K103N, ± SD, n=4, limit of detection 100 nM; for fold-change of IC50 of the mutant relative to WT: L100I/K103N vs WT
Protocol: (§1) The human osteosarcoma cell line, HOS, was obtained from Dr. Richard Schwartz (Michigan State University, East Lansing, MI) and grown in Dulbecco’s modified Eagle’s medium (Invitrogen, Carlsbad, CA) supplemented with 5 % (v/v) fetal bovine serum, 5 % newborn calf serum, and penicillin (50 units/ml) plus streptomycin (50 µg/ml; Quality Biological, Gaithersburg, MD). Virion production and single-round infectivity assays were used to determine antiviral activity (IC50 values) of the compounds as previously described.
(§2) pNLNgoMIVR-ΔEnv.LUC has been described previously. The RT open reading frame was removed from pNLNgoMIVR-ΔEnv.LUC (digestion with SpeI and SalI) and inserted between the SpeI and SalI sites of pBluescript II KS+. Using that construct as the wild-type template, we prepared the following HIV-1 RT mutants using the QuikChange II XL (Stratagene, La Jolla, CA) site-directed mutagenesis protocol kit: L100I, K103N, Y181C, Y188L, H221Y, K103N/Y181C, G190A, G190S, M230L, P236L, L100I/K103N, K103N/P225H, V106A/G190A/F227L, V106A, L234I, V106A/F227L, V106A/L234I, V106A/F227L/L234I, E40K, D67E, K101E, V111A, E138K, M184I, M184V, K101E/M184I, K101E/M184V, E138K/M184I, E138K/M184V, K101P, Y181I, and K101P/V179I. The following sense oligonucleotides were used with matching cognate antisense oligonucleotides (not shown) (Integrated DNA Technologies, Coralville, IA) in the mutagenesis: L100I, 5′-[…]-3′; L100I 2-103, 5′-[…]-3′; K103N, 5′-[…]-3′; Y181C, 5′-[…]-3′; Y188L, 5′-[…]-3′; H221Y, 5′-[…]-3′; G190A, 5′-[…]-3′; G190S, 5′-[…]-3′; P225H, 5′-[…]-3′; F227, 5′-[…]-3′; M230L, 5′-[…]-3′; P236L, 5′-[…]-3′; V106A, 5′-[…]-3′; L234I, 5′-[…]-3′; E40K, 5′-[…]-3′; D67E, 5′-[…]-3′; K101E, 5′-[…]-3′; V111A, 5′-[…]-3′; E138K, 5′-[…]-3′; M184I, 5′-[…]-3′; M184V, 5′-[…]-3′; K101P, 5′-[…]-3′; Y181I, 5′-[…]-3′; K101P/V179I, 5′-[…]-3′. The double mutants K103N/Y181C, K103N/P225H, and L100I/K103N were made using the previously generated K103N mutant and the appropriate oligonucleotides to add the second mutation, Y181C, P225, and L100I respectively. The double mutants V106A/F227L and V106A/L234I were prepared using the previously generated V106A mutant and the appropriate oligonucleotides to add the second mutation, F227L and L234I, respectively. The double mutants K101E/M184I and K101E/M184V were constructed using the previously generated K101E mutant and the appropriate oligonucleotides to add the second mutation, M184I and M184V, respectively. The double mutants E138K/M184I and E138K/M184V were constructed using the previously generated E138K mutant and the appropriate oligonucleotides for the second mutation, M184I and M184V, respectively. The triple mutant V106A/F227L/L234I was made using the previously generated V106A/F227L double mutant and the appropriate oligonucleotides for the third mutation, L234I. The triple mutant V106A/G190A/F227L was constructed in a series of steps using the previously generated V106A mutant and the appropriate oligonucleotides for the second mutation, G190A, to generate the double mutant V106A/G190A, and then the triple mutant was made using double mutant V106A/G190A and oligonucleotides for the third mutation, F227L. The DNA sequence of each construct was verified by DNA sequence determination. The sequences encoding the mutant RTs were then subcloned into pNLNgoMIVR-ΔEnv.LUC (between the KpnI and SalI sites) to produce the mutant HIV-1 constructs. These DNA sequences were also checked independently by DNA sequence determination.
(§3) 10.1186/s12977-016-0244-2 The IC50 values (nM) of RPV and the RPV analogs were determined against the NNRTI resistant mutants were measured by using a single round infection assay, n = 4. The concentrations (nM) are measured by reductions in luciferase reporter activity followed by the standard deviations. […]

HIV-1 RT mutant E40K = assay: single round infection assay, E40K; format: cell-based; settings: for fold-change of IC50 of the mutant relative to WT: E40K vs WT
Protocol: as §1, §2, §3

[2] = test system: HIV-1 RT mutant E138K/M184V; assay: single round infection assay, E138K/M184V; format: cell-based; settings: for fold-change of IC50 of the mutant relative to WT: E138K/M184V vs WT; for IC50: ± SD, n=4
Protocol: as §1, §2, §3

HIV-1 RT mutant V106A = assay: single round infection assay, V106A; format: cell-based; settings: for fold-change of IC50 of the mutant relative to WT: V106A vs WT; for IC50: ± SD, n=4
Protocol: as §1, §2, §3

WT HIV-1 = settings: previous study; cited from earlier work
HIV-1 RT mutant G190S = assay: single round infection assay, G190S; format: cell-based; settings: Human immunodeficiency virus 1
Protocol: as §1, §2, §3

HIV-1 RT mutant Y181C = test system: HIV-1 RT mutant Y181C; parameters: method as in PMID 23217210; settings: previous study; cited from earlier work
[3] = test system: HIV-1 RT mutant V106A/F227L/L234I; assay: single round infection assay, V106A/F227L/L234I; format: cell-based; settings: for IC50: ± SD, n=4; for fold-change of IC50 of the mutant relative to WT: V106A/F227L/L234I vs WT
Protocol: as §1, §2, §3

[4] = test system: HIV-1 RT mutant K103N/P225H; assay: single round infection assay, K103N/P225H; format: cell-based; settings: for IC50: Human immunodeficiency virus 1; for fold-change of IC50 of the mutant relative to WT: K103N/P225H vs WT
Protocol: as §1, §2, §3

[5] = test system: HIV-1 RT mutant K101E/M184V; assay: single round infection assay, K101E/M184V; format: cell-based; settings: for IC50: ± SD, n=4; for fold-change of IC50 of the mutant relative to WT: K101E/M184V vs WT
Protocol: as §1, §2, §3

HIV-1 RT mutant K101E = assay: single round infection assay, K101E; format: cell-based; settings: for IC50: ± SD, n=4; for fold-change of IC50 of the mutant relative to WT: K101E vs WT
Protocol: as §1, §2, §3

HIV-1 RT mutant G190A = assay: single round infection assay, G190A; format: cell-based; settings: Human immunodeficiency virus 1
Protocol: as §1, §2, §3

HIV-1 RT mutant E138K = assay: single round infection assay, E138K; format: cell-based; settings: for fold-change of IC50 of the mutant relative to WT: E138K vs WT; for IC50: ± SD, n=4
Protocol: as §1, §2, §3

[6] = Human immunodeficiency virus 1, E138K/M184V
[7] = Human immunodeficiency virus 1, V106A/F227L/L234I (selected by DOR)
[8] = V106A/F227L/L234I (selected by DOR)
[9] = Human immunodeficiency virus 1, K101E/M184V
[10] = Human immunodeficiency virus 1, K101E
[11] = Human immunodeficiency virus 1, E138K
[12] = Human immunodeficiency virus 1, V106A (selected by DOR)

Row | SMILES | IC50 [1] [nM] | fold-change of IC50 of the mutant relative to WT [1] | fold-change of IC50 of the mutant relative to WT (HIV-1 RT mutant E40K) | fold-change of IC50 of the mutant relative to WT [2] | IC50 [2, 6] [nM] | fold-change of IC50 of the mutant relative to WT (HIV-1 RT mutant V106A) | IC50 (WT HIV-1) [nM] | IC50 (HIV-1 RT mutant G190S) [nM] | IC50 (HIV-1 RT mutant Y181C) [nM] | IC50 [3, 7] [nM] | IC50 [3, 8] [nM] | fold-change of IC50 of the mutant relative to WT [3] | IC50 [4] [nM] | fold-change of IC50 of the mutant relative to WT [4] | fold-change of IC50 of the mutant relative to WT [5] | IC50 (HIV-1 RT mutant K101E; [10]) [nM] | fold-change of IC50 of the mutant relative to WT (HIV-1 RT mutant K101E) | IC50 (HIV-1 RT mutant G190A) [nM] | fold-change of IC50 of the mutant relative to WT (HIV-1 RT mutant E138K) | IC50 (HIV-1 RT mutant E138K; [11]) [nM] | other results
1 | Cc1cc(/C=C/C#N)cc(C)c1Nc1nc(Nc2ccc3scnc3c2)c2nc[nH]c2n1 [compound 21] | 37.6 | 92 | 2 | 6 | < 2.5 | 3 | < 7 | 0.2 ± 0.04 | < 7 | < 5 | 4.3 ± 0.8 | 10 | 1.4 ± 0.07 | 3 | 6 | 3.9 ± 0.14 | 10 | 0.3 ± 0.12 | 6 | < 2.5 | IC50 ([2]; E138K/M184V): 2.3 ± 0.7 nM; IC50 [5, 9]: < 2.5 nM; IC50 ([5]; K101E/M184V): 2.4 ± 0.2 nM; IC50 (HIV-1 RT mutant E138K; E138K): 2.4 ± 0.4 nM
2 | Cc1cc(/C=C/C#N)cc(C)c1Nc1nc(Nc2ccc(F)cc2)c2nc[nH]c2n1 [compound 17] | 63.4 | 29 | 3 | < 2 | 2.3 ± 0.02 | 2 | < 7 | 0.74 ± 0.11 | < 7 | – | – | 6 | 3.4 ± 0.2 | < 2 | 4 | 8.9 | 4 | 1.6 ± 0.3 | 6 | 13.5 | IC50 (HIV-1 RT mutant E40K; Human immunodeficiency virus 1, E40K, ± SD, n=4): 6.4 nM; IC50 (HIV-1 RT mutant V106A; [12]): < 5 nM; IC50 (HIV-1 RT mutant V106A; V106A (selected by DOR)): 2.7 ± 0.64 nM; IC50 [5, 9]: 8.1 nM
3 | CC(=O)c1ccc(Nc2nc(Nc3c(C)cc(/C=C/C#N)cc3C)nc3[nH]cnc23)cc1 [compound 14] | 12.6 | 31 | < 2 | 2 | – | 10 | < 7 | 0.35 ± 0.05 | < 7 | < 5 | 2.7 ± 0.64 | 7 | 0.92 ± 0.14 | 2 | < 2 | < 2.5 | 4 | 0.13 ± 0.04 | 6 | < 2.5 | IC50 (HIV-1 RT mutant V106A; [12]): < 5 nM; IC50 (HIV-1 RT mutant V106A; V106A (selected by DOR)): 4.3 ± 0.5 nM; IC50 (HIV-1 RT mutant K101E; K101E): 1.7 ± 0.5 nM; IC50 (HIV-1 RT mutant E138K; E138K): 2.6 ± 0.6 nM
